According to ChEMBL document CHEMBL4330132, “5-Keto-3-cyano-2,4-diaminothiophenes as selective maternal embryonic leucine zipper kinase inhibitors” (Bioorg Med Chem Lett, 2019):

Tests used:
[1] = molecular target: Mitogen-activated protein kinase 4 (Homo sapiens) (UniProt P31152); assay: Binding affinity to wild-type human partial length ERK4 (M1 to L365 residues) expressed in bacterial expression system assessed as residual binding level at 1 uM by Kinomescan method relative to control
[2] = molecular target: Receptor tyrosine-protein kinase erbB-4 (Homo sapiens) (UniProt Q15303); assay: Binding affinity to wild-type human partial length ERBB4 (L690 to K994 residues) expressed in bacterial expression system assessed as residual binding level at 1 uM by Kinomescan method relative to control
[3] = molecular target: Casein kinase I isoform epsilon (Homo sapiens) (UniProt P49674); assay: Binding affinity to wild-type human full length CSNK1E (M1 to K416 residues) expressed in bacterial expression system assessed as residual binding level at 1 uM by Kinomescan method relative to control
[4] = molecular target: Rho-associated protein kinase 1 (Homo sapiens) (UniProt Q13464); assay: Binding affinity to wild-type human partial length ROCK1 (M1 to R415 residues) expressed in mammalian expression system assessed as residual binding level at 1 uM by Kinomescan method relative to control
[5] = molecular target: Phosphatidylinositol 4-phosphate 5-kinase type-1 gamma (Homo sapiens) (UniProt O60331); assay: Binding affinity to wild-type human partial length PIP5K1C (M1 to T668 residues) expressed in mammalian expression system assessed as residual binding level at 1 uM by Kinomescan method relative to control
[6] = molecular target: Casein kinase II subunit alpha' (Homo sapiens) (UniProt P19784); assay: Binding affinity to wild-type human full length CSNK2A2 (M1 to R350 residues) expressed in mammalian expression system assessed as residual binding level at 1 uM by Kinomescan method relative to control
[7] = molecular target: Fibroblast growth factor receptor 1 (Homo sapiens) (UniProt P11362); assay: Binding affinity to wild-type human partial length FGFR1 (P357 to V669 residues) expressed in bacterial expression system assessed as residual binding level at 1 uM by Kinomescan method relative to control
[8] = molecular target: Platelet-derived growth factor receptor beta (Homo sapiens) (UniProt P09619); assay: Binding affinity to wild-type human partial length PDGFRB (V582 to Y1009 residues) expressed in bacterial expression system assessed as residual binding level at 1 uM by Kinomescan method relative to control
[9] = molecular target: Rhodopsin kinase GRK7 (Homo sapiens) (UniProt Q8WTQ7); assay: Binding affinity to wild-type human full length GRK7 (M1 to L553 residues) expressed in mammalian expression system assessed as residual binding level at 1 uM by Kinomescan method relative to control
[10] = molecular target: High affinity nerve growth factor receptor (Homo sapiens) (UniProt P04629); assay: Binding affinity to wild-type human partial length TRKA (G475 to G790 residues) expressed in mammalian expression system assessed as residual binding level at 1 uM by Kinomescan method relative to control
[11] = molecular target: Proto-oncogene tyrosine-protein kinase receptor Ret (Homo sapiens) (UniProt P07949); assay: Binding affinity to wild-type human partial length RET (E713 to D1014 residues) expressed in bacterial expression system assessed as residual binding level at 1 uM by Kinomescan method relative to control
[12] = molecular target: NUAK family SNF1-like kinase 2 (Homo sapiens) (UniProt Q9H093); assay: Binding affinity to wild-type human partial length SNARK (P22 to A333 residues) expressed in mammalian expression system assessed as residual binding level at 1 uM by Kinomescan method relative to control
[13] = test system: Epidermal growth factor receptor (Homo sapiens), P00533 [L861Q]; assay: Binding affinity to human partial length EGFR L861Q mutant (R669 to V1011 residues) expressed in bacterial expression system assessed as residual binding level at 1 uM by Kinomescan method relative to control
[14] = molecular target: Cyclin-dependent kinase-like 2 (Homo sapiens) (UniProt Q92772); assay: Binding affinity to wild-type human partial length CDKL2 (M1 to D327 residues) expressed in bacterial expression system assessed as residual binding level at 1 uM by Kinomescan method relative to control
[15] = molecular target: Mitogen-activated protein kinase kinase kinase 2 (Homo sapiens) (UniProt Q9Y2U5); assay: Binding affinity to wild-type human partial length MAP3K2 (S315 to H619 residues) expressed in mammalian expression system assessed as residual binding level at 1 uM by Kinomescan method relative to control
[16] = test system: Epidermal growth factor receptor (Homo sapiens), P00533 [UNDEFINED MUTATION]; assay: Binding affinity to human partial length EGFR E746-A750del mutant expressed in bacterial expression system assessed as residual binding level at 1 uM by Kinomescan method relative to control
[17] = molecular target: MAP kinase-interacting serine/threonine-protein kinase 2 (Homo sapiens) (UniProt Q9HBH9); assay: Binding affinity to wild-type human partial length MKNK2 (G63 to S388 residues) expressed in mammalian expression system assessed as residual binding level at 1 uM by Kinomescan method relative to control
[18] = molecular target: Wee1-like protein kinase 2 (Homo sapiens) (UniProt P0C1S8); assay: Binding affinity to wild-type human partial length WEE2 (M204 to K492 residues) expressed in bacterial expression system assessed as residual binding level at 1 uM by Kinomescan method relative to control
[19] = molecular target: Tyrosine-protein kinase FRK (Homo sapiens) (UniProt P42685); assay: Binding affinity to wild-type human partial length FRK (A215 to F503 residues) expressed in bacterial expression system assessed as residual binding level at 1 uM by Kinomescan method relative to control
[20] = molecular target: Ephrin type-A receptor 8 (Homo sapiens) (UniProt P29322); assay: Binding affinity to wild-type human partial length EPHA8 (Q608 to C920 residues) expressed in bacterial expression system assessed as residual binding level at 1 uM by Kinomescan method relative to control
[21] = molecular target: Cyclin-dependent kinase 7 (Homo sapiens) (UniProt P50613); assay: Binding affinity to wild-type human full length CDK7 (M1 to L344 residues) expressed in mammalian expression system assessed as residual binding level at 1 uM by Kinomescan method relative to control
[22] = molecular target: Serine/threonine-protein kinase N2 (Homo sapiens) (UniProt Q16513); assay: Binding affinity to wild-type human partial length PKN2 (E634 to C984 residues) expressed in bacterial expression system assessed as residual binding level at 1 uM by Kinomescan method relative to control
[23] = molecular target: Serine/threonine-protein kinase PLK4 (Homo sapiens) (UniProt O00444); assay: Binding affinity to wild-type human partial length PLK4 (M1 to S273 residues) expressed in mammalian expression system assessed as residual binding level at 1 uM by Kinomescan method relative to control
[24] = molecular target: Phosphorylase b kinase gamma catalytic chain, skeletal muscle/heart isoform (Homo sapiens) (UniProt Q16816); assay: Binding affinity to wild-type human full length PHKG1 (M1 to Y387 residues) expressed in bacterial expression system assessed as residual binding level at 1 uM by Kinomescan method relative to control
[25] = molecular target: Serine/threonine-protein kinase SIK2 (Homo sapiens) (UniProt Q9H0K1); assay: Binding affinity to wild-type human full length SIK2 (M1 to N926 residues) expressed in bacterial expression system assessed as residual binding level at 1 uM by Kinomescan method relative to control

CC(C)Nc1sc(C(=O)c2ccc(Cl)s2)c(N)c1C#N
Activity [1]: 89%
Activity [2]: 100%
Activity [3]: 61%
Activity [4]: 100%
Activity [5]: 86%
Activity [6]: 100%
Activity [7]: 70%
Activity [8]: 54%
Activity [9]: 95%
Activity [10]: 92%
Activity [11]: 97%
Activity [12]: 100%
Activity [13]: 96%
Activity [14]: 80%
Activity [15]: 98%
Activity [16]: 93%
Activity [17]: 100%
Activity [18]: 94%
Activity [19]: 76%
Activity [20]: 86%
Activity [21]: 100%
Activity [22]: 73%
Activity [23]: 100%
Activity [24]: 89%
Activity [25]: 92%
